# In publication PMC11762167, “G Protein-Coupled Receptor 17 Inhibits Glucagon-like Peptide-1 Secretion via a Gi/o-Dependent Mechanism in Enteroendocrine Cells” (Biomolecules, 2024):
# Columns and labels:
# Type in all cases: cell-based
# [1] = biological target: T1, hGPR17L (Homo sapiens, UniProt Q13304); experiment: Endpoint cAMP (HTRF) in GLUTag cells expressing hGPR17L; design: host or cells: GLUTag cells (murine enteroendocrine line), adenoviral transduction; Mean Diff. of cAMP, MDL29,951 vs FSK alone (Tukey): unit not given here; conditions: for Predicted (LS) mean diff.: Fig 2B, Forskolin; for Mean Diff. of cAMP, MDL29,951 vs FSK alone (Tukey): hGPR17L
# Description: GLUTag cells were maintained in Dulbecco’s Modified Eagle Medium (DMEM) supplemented with 10% fetal bovine serum and 1% penicillin–streptomycin in a humidified incubator at 37 °C and 5% CO2. For adenovirus transduction, GLUTag cells were seeded into poly-D-lysine coated 96-well plates or 4-chamber slides. The next day, cells were transduced with adenoviruses (100–1250 viral particles per cell at time of seeding) as indicated. After 24–30 h, adenovirus-containing media was changed to serum-free growth media for overnight serum starvation. The following day, GLUTag cells were used for cAMP or calcium signaling assays, GLP-1 secretion assays, or immunostaining and imaging.
# Endpoint cAMP measurements were conducted as follows. GLUTag cells were seeded into poly-D-lysine-coated 96-well plates and transduced with adenovirus as specified above and then tested for cAMP signaling. Medium was removed and cells were washed with cAMP stimulation buffer (Hanks’ balanced salt solution (HBSS), 20 mM HEPES, pH 7.4) and then incubated in cAMP stimulation buffer for 30 min at 37 °C and 5% CO2. Cells were then treated for 30 min with agonist and forskolin in the presence of 500 µM IBMX at 37 °C and 5% CO2. Stimulation buffer was then decanted, and cAMP lysis buffer (50 mM HEPES, 10 mM CaCl2, 0.35% Triton X-100, and 500 µM IBMX) was added and shaken at 700 rpm for 1 h. Lysate was transferred to a 384-well plate, and the cAMP levels were quantified using the Cisbio HTRF cAMP (Gi kit; Revvity, Waltham, MA, USA) according to the manufacturer’s protocol.
# [2] = biological target: T1, hGPR17L; experiment: Live-cell GloSensor cAMP in GLUTag cells transfected with hGPR17L; design: host or cells: GLUTag cells (murine enteroendocrine line), adenoviral transduction; conditions: MDL29,951 alone or together with forskolin
# Description: (§1) Live-cell, real-time cAMP measurements were performed using Promega (Madison, WI, USA) GloSensor cAMP luminescent biosensor technology. Glosensor cAMP experiments were conducted as previously described in GLUTag cells and HEK293 cells.
# [3] = biological target: mGPR17 (Mus musculus, UniProt Q6NS65); experiment: GloSensor cAMP in HEK293 cells transfected with mGPR17; design: host or cells: GLUTag cells, adenoviral transduction
# Description: HEK293 cells were maintained and transfected as previously described.
# as §1
# Sequence of mGPR17 (Q6NS65 whole entry): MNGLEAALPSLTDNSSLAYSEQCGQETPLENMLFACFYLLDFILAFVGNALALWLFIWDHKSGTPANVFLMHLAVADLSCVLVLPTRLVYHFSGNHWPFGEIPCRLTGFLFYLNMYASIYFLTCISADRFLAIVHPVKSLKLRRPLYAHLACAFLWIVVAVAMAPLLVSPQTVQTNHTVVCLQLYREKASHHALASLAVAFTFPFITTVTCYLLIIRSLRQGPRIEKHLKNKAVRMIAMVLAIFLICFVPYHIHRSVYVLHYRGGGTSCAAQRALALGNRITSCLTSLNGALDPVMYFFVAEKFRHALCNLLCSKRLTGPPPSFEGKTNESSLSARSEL
# T1 sequence (Q13304 whole entry): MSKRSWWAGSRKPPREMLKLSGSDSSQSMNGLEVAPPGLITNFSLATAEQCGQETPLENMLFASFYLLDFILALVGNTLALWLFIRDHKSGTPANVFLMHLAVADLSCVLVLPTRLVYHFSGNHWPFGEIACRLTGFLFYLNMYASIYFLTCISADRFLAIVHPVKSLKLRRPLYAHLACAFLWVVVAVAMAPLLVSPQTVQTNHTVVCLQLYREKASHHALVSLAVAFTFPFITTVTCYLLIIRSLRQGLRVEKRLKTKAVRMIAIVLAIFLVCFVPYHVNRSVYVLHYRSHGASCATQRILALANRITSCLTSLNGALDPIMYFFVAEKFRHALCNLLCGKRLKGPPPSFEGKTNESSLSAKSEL
smiles,measurement,setting,value
"O=C(O)CCc1c(C(=O)O)[nH]c2cc(Cl)cc(Cl)c12 [MDL29,951]",Predicted (LS) mean diff.,"[1]; log [MDL29,951] (M) -7.0 vs. Vehicle, +Vehicle",-27.4
same,Predicted (LS) mean diff.,"[1]; log [MDL29,951] (M) -7.6 vs. Vehicle, +100 nM YM-254890",-16.56
same,Predicted (LS) mean diff.,"[1]; log [MDL29,951] (M) -7.6 vs. Vehicle, +100 ng/mL PTX",-4.54
same,Predicted (LS) mean diff.,"[1]; log [MDL29,951] (M) -7.6 vs. Vehicle, +Vehicle",-8.48
same,Predicted (LS) mean diff.,"[1]; log [MDL29,951] (M) -8.2 vs. Vehicle, +100 nM YM-254890",-9.253
same,Predicted (LS) mean diff.,"[1]; log [MDL29,951] (M) -8.2 vs. Vehicle, +100 ng/mL PTX",0.26
same,Predicted (LS) mean diff.,"[1]; log [MDL29,951] (M) -8.2 vs. Vehicle, +Vehicle",3.753
same,Predicted (LS) mean diff.,"[1]; log [MDL29,951] (M) -8.8 vs. Vehicle, +100 nM YM-254890",-3.55
same,Predicted (LS) mean diff.,"[1]; log [MDL29,951] (M) -8.8 vs. Vehicle, +100 ng/mL PTX",-5.335
same,Predicted (LS) mean diff.,"[1]; log [MDL29,951] (M) -8.8 vs. Vehicle, +Vehicle",6.603
same,Predicted (LS) mean diff.,"[1]; log [MDL29,951] (M) -9.4 vs. Vehicle, +100 nM YM-254890",1.64
same,Predicted (LS) mean diff.,"[1]; log [MDL29,951] (M) -9.4 vs. Vehicle, +100 ng/mL PTX",2.945
same,Predicted (LS) mean diff.,"[1]; log [MDL29,951] (M) -9.4 vs. Vehicle, +Vehicle",8.423
same,maximum inhibition of forskolin-stimulated cAMP,"[1]; at 390 nM MDL29,951, 10 µM forskolin",37 ± 5.1%
same,"Mean Diff. of cAMP, MDL29,951 vs FSK alone (Tukey)","[1]; log [MDL29,951] (M) -4.0",-0.306
same,"Mean Diff. of cAMP, MDL29,951 vs FSK alone (Tukey)","[1]; log [MDL29,951] (M) -4.6",-0.593
same,"Mean Diff. of cAMP, MDL29,951 vs FSK alone (Tukey)","[1]; log [MDL29,951] (M) -5.2",-1.138
same,"Mean Diff. of cAMP, MDL29,951 vs FSK alone (Tukey)","[1]; log [MDL29,951] (M) -5.8",-1.598
same,"Mean Diff. of cAMP, MDL29,951 vs FSK alone (Tukey)","[1]; log [MDL29,951] (M) -6.4",-1.654
same,"Mean Diff. of cAMP, MDL29,951 vs FSK alone (Tukey)","[1]; log [MDL29,951] (M) -7.0",-1.376
same,"Mean Diff. of cAMP, MDL29,951 vs FSK alone (Tukey)","[1]; log [MDL29,951] (M) -7.6",-0.7263
same,"Mean Diff. of cAMP, MDL29,951 vs FSK alone (Tukey)","[1]; log [MDL29,951] (M) -8.2",-0.237
same,"Mean Diff. of cAMP, MDL29,951 vs FSK alone (Tukey)","[1]; log [MDL29,951] (M) -8.8",-0.04325
same,"Mean Diff. of cAMP, MDL29,951 vs FSK alone (Tukey)","[1]; log [MDL29,951] (M) -9.4",-0.0985
same,"Mean Diff. (Tukey's multiple comparisons test), cAMP, Row 10 vs. Row 11","[1]; hGPR17L-WT (1250), log [MDL29,951] (M) -4.0 vs. Vehicle, Forskolin stimulation, Figure 4B",-9.193
same,"Mean Diff. (Tukey's multiple comparisons test), cAMP, Row 9 vs. Row 11","[1]; hGPR17L-WT (1250), log [MDL29,951] (M) -4.6 vs. Vehicle, Forskolin stimulation, Figure 4B",-17.14
same,"Mean Diff. (Tukey's multiple comparisons test), cAMP, Row 8 vs. Row 11","[1]; hGPR17L-WT (1250), log [MDL29,951] (M) -5.2 vs. Vehicle, Forskolin stimulation, Figure 4B",-27.93
same,"Mean Diff. (Tukey's multiple comparisons test), cAMP, Row 7 vs. Row 11","[1]; hGPR17L-WT (1250), log [MDL29,951] (M) -5.8 vs. Vehicle, Forskolin stimulation, Figure 4B",-39.19
same,"Mean Diff. (Tukey's multiple comparisons test), cAMP, Row 6 vs. Row 11","[1]; hGPR17L-WT (1250), log [MDL29,951] (M) -6.4 vs. Vehicle, Forskolin stimulation, Figure 4B",-41.54
same,"Mean Diff. (Tukey's multiple comparisons test), cAMP, Row 5 vs. Row 11","[1]; hGPR17L-WT (1250), log [MDL29,951] (M) -7.0 vs. Vehicle, Forskolin stimulation, Figure 4B",-35.32
same,"Mean Diff. (Tukey's multiple comparisons test), cAMP, Row 4 vs. Row 11","[1]; hGPR17L-WT (1250), log [MDL29,951] (M) -7.6 vs. Vehicle, Forskolin stimulation, Figure 4B",-21.64
same,"Mean Diff. (Tukey's multiple comparisons test), cAMP, Row 3 vs. Row 11","[1]; hGPR17L-WT (1250), log [MDL29,951] (M) -8.2 vs. Vehicle, Forskolin stimulation, Figure 4B",-11.12
same,"Mean Diff. (Tukey's multiple comparisons test), cAMP, Row 2 vs. Row 11","[1]; hGPR17L-WT (1250), log [MDL29,951] (M) -8.8 vs. Vehicle, Forskolin stimulation, Figure 4B",-5.06
same,"Mean Diff. (Tukey's multiple comparisons test), cAMP, Row 1 vs. Row 11","[1]; hGPR17L-WT (1250), log [MDL29,951] (M) -9.4 vs. Vehicle, Forskolin stimulation, Figure 4B",-7.193
same,"pattern of cAMP modulation, live-cell bioluminescent cAMP biosensor",[2],biphasic pattern
same,cAMP Maximum Inhibition (% Inhibition),[3]; 3 µM forskolin,61±3.4%
same,cAMP Potency (pEC50) (reversal of inhibition),[3]; 3 µM forskolin,4.74±0.23
same,cAMP Potency (pIC50),[3]; 3 µM forskolin,8.48±0.20
same,EC50,"[3]; 3 µM forskolin, read-out: cAMP Potency EC50 (reversal of inhibition)",18 µM
same,IC50,"[3]; 3 µM forskolin-stimulated GloSensor cAMP, read-out: cAMP Potency IC50",0.0033 µM
same,cAMP Effect of 100 μM MDL (% Inhibition),"[3]; 100 μM MDL29,951, 3 µM forskolin",45±6.3%
